Activity calls are given as the source filed them. The calls are words filed in the database; no cut-off is given here.

Assay [1] concerns Mus musculus. The assay is described as follows: Reduction of amyloid beta in Tg2576 mouse plasma at 2.5 mg/kg/day. In kind it is functional. Further details: scale not given: the % may be the effect or the level left.
Assay [2] relates to Mus musculus. Put plainly: Reduction of amyloid beta in Tg2576 mouse brain at 2.5 mg/kg/day. It is filed as functional. Details: scale not given: the % may be the effect or the level left.
The test system of assay [3] is Mus musculus. The assay is described as follows: Induction of hyperproliferative skin lesions assessed as epidermal hyperplasia in Nct+/- C57BL/6;129Svi mouse at 2.5 mg/kg/day. It is filed as functional, organism-based.
The subject of assay [4] is Fibroblast. Put plainly: Inhibition of Nct-/- C57BL/6;129Svi mouse fibroblast cell proliferation. In kind it is functional, cell-based.
The test system of assay [5] is Fibroblast. Put plainly: Inhibition of EGF induced Nct-/- C57BL/6;129Svi mouse fibroblast cell proliferation at 5 uM. In kind it is functional, cell-based.
For assay [6], the system named is Fibroblast. The assay is described as follows: Inhibition of EGF induced Nct+/+ C57BL/6129Svi mouse fibroblast cell proliferation at 5 uM. It is filed as functional, cell-based. Conditions: C57BL/6.

Take `C[C@H](NC(=O)[C@@H](O)c1cc(F)cc(F)c1)C(=O)N[C@@H]1C(=O)N(C)c2ccccc2-c2ccccc21`: the Activity in the assay with Mus musculus [1] is given as greater than 90%; in the assay with Mus musculus [2], greater than 70%. Further, in the assay on Mus musculus [3], the outcome was Active.
`COc1cc2ncnc(Nc3cccc(Cl)c3)c2cc1OC`: the outcome in the assay with Fibroblast [4] and in the assay with Fibroblast [5] was Active. For the same molecule, in the assay on Fibroblast [6], the result was inactive.

The values above are taken from ChEMBL document CHEMBL1156510, “Epidermal growth factor receptor and notch pathways participate in the tumor suppressor function of gamma-secretase” (2007).
